{"source": "patent US6288110A", "about": "“Pharmaceutical compositions comprising disulfiram” (Yeda Research and Development Co Ltd., priority 1998, dated 2001)", "key": {"[1]": {"system": "C6 rat glioma cells", "assay": "DNA synthesis (3H-thymidine incorporation) in C6 rat glioma cells", "format": "cell-based", "conditions": "for IC (maximal): Rattus norvegicus", "experimental": "C6 rat glioma cells were routinely cultured in DMEM supplemented with 5% FCS (Biological Industries, Israel), GPS (100 U/ml penicillin, […] streptomycin (Biological Industries, Israel) and 2 mM glutamine (Biolab Ltd. Israel)) and 125 μg/ml fungizone (Biolab Ltd, Israel).\nC6 rat glioma cells were plated in 96-well plates (Nunc, Denmark) (5000 cells per well) in DMEM with 5% FCS. After 6 hours the cells were rinsed and incubated for 48 hours in serum free medium. 5% FCS or growth factors were then added to the cells for 24 hours (triplicates). ^3 H-methyl-thymidine (5μCi/ml) (Rotem Ind. Ltd., Israel) was added to the cells for the last 14 hours. The cells were rinsed with 100 μl methanol for 10 minutes, followed by 200 μl 5% trichloroacetic acid, and then rinsed and lysed with 150 μl 0.3M NaOH. Radioactive thymidine incorporated into the DNA was determined for 1 min with 3 ml scintillation liquid (ULTIMA GOLD Packard) in a β-counter. DNA synthesis assays were performed in triplicates.\nDisulfiram was prepared in 0.1 mM stock solutions in DMSO. Control samples were incubated with the appropriate concentration of DMSO. Inhibition was calculated as percentage of DNA synthesis of control.\nTo determine whether disulfiram acts directly on endothelial cells rather than on accessory cells such as macrophages and mast cells that can be responsible for the development of an angiogenic response in vivo, the effect of the drug on the growth of BCE cells was examined in vitro as described in section (c) of \"Materials and Methods\" above. DNA synthesis in BCE cells was measured in presence of increasing concentrations of disulfiram incubated for 24 hours with the cells. […] Maximal inhibitory activity (80%) for BSMC was at 0.5-1 μM disulfiram, while maximal inhibitory activity for C6 glioma cells or BALB/MK keratinocytes was at concentrations 10 fold higher (2-3 μM) than those for endothelial cells (0.2-0.5 μM).\nTo examine the time course of the effect of disulfiram and whether the effect was reversible, cells were incubated with disulfiram for various periods of time (1, 2, 4 and 24 hours), then washed away and DNA synthesis was determined. One to 4 hours of exposure to disulfiram were enough to induce maximal inhibitory effect at concentrations ranging from 0.5 μM for BCE cells (FIG. 3A) to 5 μM for BALB/MK keratinocytes (FIG. 3C) and C6 glioma cells (FIG. 3D). […] BSMC were less sensitive as far as time course is concerned when incubated with 1 μM disulfiram. Following 4 hours of incubation with 1 μM disulfiram, DNA synthesis inhibition in BSMC reached only 50% (FIG. 3B). […]"}, "[2]": {"system": "BALB/MK keratinocytes", "assay": "Apoptosis by FACS in BALB/MK keratinocytes", "format": "cell-based, murine", "conditions": "4 μM (not shown)", "experimental": "Cells were cultured in plastic tissue culture dishes for 48 hours in presence of growth media as described above, until reaching 40-50% confluency. Disulfiram was then added to the cells for 20 hours. The cells were removed from the plates by EDTA-trypsin and fixed in ice-cold 70% ethanol (BioLab, Israel) in -20° C. for 2 hr to overnight. The fixed cells (2-5×10^6) were washed once with HEPES-buffered saline (HBSS) and incubated with 0.5 mg/ml RNAseH (Boehringer Mannheim). Afterwards the cells were resuspended in HBSS containing 50 μg/ml propidium iodide (Sigma) and subsequently analyzed on a FACSort flow cytometer (Beckton Dickinson Inc.) using Lysis II software. For the analysis, 10,000 cells were examined from each sample. The percentage of the hypodiploid cells was measured (Darzynkiewicz, 1992; Afanasyev, 1993). The cell cycle histogram was divided into four regions according to the cell cycle phases: Ap, apoptotic cells; G1, diploid cells; S, intermediate cells; and G2 /M, tetraploid cells."}, "[3]": {"system": "BSMC", "assay": "Cell rounding, BSMC", "format": "cell-based, bovine", "conditions": "5 μM"}, "[4]": {"system": "aldehyde dehydrogenases", "conditions": "cited from earlier work"}, "[5]": {"system": "metabolism of the carcinogen azomethane", "conditions": "cited from earlier work"}, "[6]": {"system": "tumor progression from papilloma to squamous cell carcinoma", "conditions": "murine skin multistage carcinogenesis model; cited from earlier work"}, "[7]": {"conditions": "ingested or injected intraperitoneally; cited from earlier work"}}, "note": "Read-outs that look alike come from different tables or passages of the source.", "data": [{"smiles": "CCN(CC)C(=S)SSC(=S)N(CC)CC", "note": "[disulfiram, Bis(diethylthiocarbamoyl) disulfide]", "values": [{"measurement": "maximal inhibitory concentration relative to endothelial cells, fold higher", "setting": "[1]; C6 glioma vs endothelial cells (0.2-0.5 μM)", "result": 10, "unit": "fold"}, {"measurement": "persistence of inhibitory effect after short exposure", "setting": "[1]; C6 glioma, 24 hours following short exposure", "result": "inhibitory effect seemed to be maintained"}, {"measurement": "IC (maximal)", "setting": "[1]; C6 glioma cells, read-out: concentration of maximal inhibitory activity (DNA synthesis)", "result": "2 to 3", "unit": "µM"}, {"measurement": "IC (maximal)", "setting": "[1]; C6 glioma, 1 to 4 hours of exposure, washed, read-out: concentration inducing maximal inhibitory effect on DNA synthesis, short exposure", "result": 5, "unit": "µM"}, {"measurement": "apoptosis by FACS", "setting": "[2]", "result": "did not exhibit induction of apoptosis"}, {"measurement": "cell rounding", "setting": "[3]", "result": "did not change their shape to the rounded form"}, {"measurement": "inhibition of aldehyde dehydrogenases", "setting": "[4]", "result": "inhibit"}, {"measurement": "inhibition of azomethane metabolism", "setting": "[5]", "result": "inhibited the metabolism"}, {"measurement": "inhibition of tumor progression", "setting": "[6]", "result": "inhibit tumor progression"}, {"measurement": "distribution throughout the body", "setting": "[7]", "result": "extensively distributed throughout the body including the brain"}]}]}
